The values that follow come from PMC11329504, “Identification of novel small molecule-based strategies of COL7A1 upregulation and readthrough activity for the treatment of recessive dystrophic epidermolysis bullosa” (Scientific Reports, 2024).

Molecules are shown by their SMILES. Read-outs that look alike come from different tables or passages of the source.

Data set [1] can be described thus: Cytotoxicity, ATP levels, normal human keratinocytes (NHK). The data set is classed as cell-based. The conditions noted are these: normal human keratinocytes (NHK). Here is the method: The viability of RDEB patient-derived cell lines or NHK was evaluated by measuring the ATP levels as an indirect readout of the potential cytotoxicity effect of compounds. Cells were plated and treated exactly with the same conditions as those followed in the AlphaLISA assay, described above. To measure ATP levels, cells were processed using the ATPlite™ 1step luminescence-based assay (PerkinElmer 6,016,731), following the manufacturer’s protocol. 25 μL of ATPlite™ reagent was added directly over cells and plates were covered with a sealing film and shaken for 25 min using a microtiter plate shaker. Luminescence was measured in a Luminoskan Ascent luminometer (Thermo Fisher Scientific). 10 μM of Staurosporine was used as a reference compound and control for the total cytotoxicity.

The test system of data set [2] is truncated and full-length C7 in RDEB_L1, RDEB_L5 and HEK293^R578X cells. In words: Western blot detection of truncated and full-length C7. The class given is cell-based, human. Here is the method:
For western blot, RDEB or normal human keratinocytes were lysed in protein extraction buffer (50 mM Tris–HCl [pH 7.5], 100 mM NaCl, 1% Nonidet P-40, and 4 mM EDTA) containing proteinase inhibitors cocktail (Complete Mini, EDTA free; Roche Diagnostics, Mannheim, Germany). Lysates were incubated for 30 min on ice and centrifuged at 15,000 g for 30 min at 4 °C. Supernatants were then collected and concentrated by ultrafiltration using Amicon Ultra columns (10 kDa; Millipore, Ireland). Protein concentrations were measured using the Bradford assay (Bio-Rad, Hercules, CA). For each sample, […] total protein was resolved on NuPAGE Novex 3%–8% Tris–Acetate gel electrophoresis (Invitrogen, Carlsbad, CA) and electrotransferred to nitrocellulose membranes (Invitrogen, Carlsbad, CA). For type VII collagen analysis, blots were probed with a monospecific polyclonal anti-C7 antibody (a generous gift from Dr. A. Nystrom, University of Freiburg). Invitrogen anti-MDH1 polyclonal antibody (PA550446, 1:1000) was used to detect MDH1. Standard antibodies against a reference protein were used as a loading control, as indicated. Visualization of the resulting signal was performed by incubating with horseradish peroxidase (HRP)- conjugated anti-rabbit antibody (Amersham, Burlington, MA) and West Pico Chemiluminescent Substrate (Pierce, Rockford, IL).

Data set [3] has as its system RDEB_L1 cells. In words: RNAseq (HTPathwaySeq) transcriptomic profiling, GSEA. The class given is cell-based, human. The conditions noted are these: 24 h; for modulation of GO terms related to NMD, readthrough, translation and unfolded protein response: 20 ng/mL TGFβ2, compound 7 and 8 at the highest concentrations tested of 100 and 300 µM. The method, then: The […]®) analysis was conducted at […], Belgium) using samples provided by Almirall. A total of 376 cell lysate samples representing 4 biological replicates of 94 samples were provided to […] in four 96-well plates. On each 96-well plate, two empty wells were allocated to include […] reference samples. Samples from the same biological group were distributed over the different plates to not confound inter-plate variability with biological signal. […] The compounds were evaluated in RDEB_L1 cells in the presence of 20 ng/mL TGFβ2 to mimic RDEB physiology and in normal human keratinocytes with no TGFβ2 treatment. Cells were treated during 24 h. Controls for RDEB_L1 cells not treated with TGFβ2 and RDEB_L1 and NHK cells treated with DMSO in the absence of compounds were also included. The conditions of the assay were identical to those described for the Real-time quantitative RT-PCR (see above). For the […], over 460 M reads were generated for 376 samples of interest, resulting in about 1.22 M reads per sample on average. […] is based on a 3'-end library preparation method, and gene body read coverage is concentrated towards the 3'-end of the genes. For quality control, a selection of lysate samples was checked for gDNA contamination and RNA content using qPCR before library preparation. RNA samples were processed to generate RNA-sequencing libraries using […] procedure based on the QuantSeq (Lexogen) 3'-end library preparation workflow. The quality of a selection of samples was assessed with the 2100 Bioanalyzer instrument (Agilent). Libraries were quantified using qPCR and pooled for single-end sequencing on a NextSeq 500 (Illumina) according to […] standard operating procedure. Raw reads were mapped to the human genome (hg38) and gene expression was quantified based on the Ensembl transcriptome annotation (version 85) using […]. Raw counts were normalized using […]2 prior to differential gene expression analysis. For each cell line, samples were clustered based on log-transformed normalized counts using tSNE. A perplexity parameter of 35 and a maximum number of 1000 iterations were applied. Genes with more than 10 normalized counts in at least 3 samples were used as input. Analysis was run in R (v3.2) with a fixed seed. […] For each contrast, genes ranked by fold change were used as input. PCA was applied on the fold changes of each compound vs their associated vehicle using the 500 genes with the greatest variance. Arrows connect the different incremental dosages used on each compound to observe their differentiation patterns. Pathway enrichment and PCA were performed using R v.3.2. Pathway enrichment was analyzed with cluster profile package. The procedure followed for the cell treatments of RDEB-L1 and NHEK, was the same as that used in the RT-qPCR study. Cell lysis and sample preparation were conducted according to […] instructions: Plates of treated cells were centrifuged for 5 min at 600 g at 4 °C, and the medium was carefully removed to avoid disturbing the cells. Then, cells were washed in PBS, centrifuged and the PBS was removed again. […] After checking that cells were lysed, the samples were transferred to 96-well PCR plates, and then sealed and stored at -80 °C to be sent to […].

The mark [4] stands for this setting: human, NHK cells, ATP levels, read-out: Cytotox. IC50.

In the case of `NC(=O)Cn1ccc2ccc(-c3cnc(N)c(C(=O)NC4C5CC6CC4CC(O)(C6)C5)n3)cc21` (centres unmarked) [Compound 1], the IC50 in data set [1] (setting [4]) was found to be 19 ± 2.4 µM. In addition, the “C7 products induced, western blot” value in data set [2] (RDEB_L1 cells, 10 μM) is listed as “only upregulating the truncated form of C7”. For the same molecule, in data set [3] (20 ng/mL TGFβ2, at 10 µM), the “TGFβ signaling pathway signature (GSEA)” value was “Downregulation of TGFβ signaling”. The “modulation of GO terms related to NMD, readthrough, translation and unfolded protein response” value in data set [3] was “Neither compound 1 nor chuangxinmycin nor 3-methyl-chuangxinmycin showed any impact on these pathways”.
Turning to `C#Cc1cc(-c2ccncc2)c(-c2cccc(F)c2)nc1N` [Compound 7], the IC50 in data set [1] (read-out: cytotoxicity IC50) is over 100 µM. Moreover, the “C7 products induced, western blot” value in data set [2] (RDEB_L1 and HEK293^R578X cells, 50 μM compound 7, 50 μM chuangxinmycin, 100 μM 3-methyl-chuangxinmycin) was “partially upregulated full-length C7”. For the same molecule, the “TGFβ signaling pathway signature (GSEA)” value in data set [3] (20 ng/mL TGFβ2) was “did not show any effect”. Besides, the “modulation of GO terms related to NMD, readthrough, translation and unfolded protein response” value in data set [3] is “modulating genes specifically related to cytoplasmic translation and the ribosome”.
Turning to `CNC(C)C1CCC(N)C(OC2C(N)CC(N)C(OC3OCC(C)(O)C(NC)C3O)C2O)O1` (centres unmarked) [Gentamicin, reference compound], the IC50 in data set [1] (setting [4]) is 1600 ± 280 µM. Further, the “concentrations showing some upregulation of truncated and full-length forms of C7 in western blot” value in data set [2] (western blot) was over 1 mM. Also, the “modulation of GO terms related to NMD, readthrough, translation and unfolded protein response” value in data set [3] was “modulating genes related with the response to unfolded and topologically incorrect proteins”.
